In PubChem BioAssay (NCI):
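Compound exposure: 48 hours, 5 concentrations, 96-well plates. Definition used: TGI = concentration required for complete inhibition of growth.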

Assays:
Assay in all cases: NCI tumour cell line growth inhibition, 48 h
LOX IMVI melanoma = system: LOX IMVI melanoma
HOP-18 NSCLC = system: HOP-18 NSCLC
OVCAR-3 ovarian = system: OVCAR-3 ovarian
M19-MEL melanoma = system: M19-MEL melanoma
DMS 273 small cell lung = system: DMS 273 small cell lung
EKVX NSCLC = system: EKVX NSCLC
HCT-15 colon = system: HCT-15 colon
SF-295 CNS = system: SF-295 CNS
UO-31 renal = system: UO-31 renal
SF-539 CNS = system: SF-539 CNS
NCI-H226 lung = system: NCI-H226 lung
DMS 114 small cell lung = system: DMS 114 small cell lung
HCT-116 colon = system: HCT-116 colon
OVCAR-8 ovarian = system: OVCAR-8 ovarian
SNB-78 CNS = system: SNB-78 CNS
KM12 colon = system: KM12 colon
HL-60(TB) leukemia = system: HL-60(TB) leukemia
MCF7 breast = system: MCF7 breast
COLO 205 colon = system: COLO 205 colon
HOP-62 NSCLC = system: HOP-62 NSCLC
UACC-257 melanoma = system: UACC-257 melanoma
SN12C renal = system: SN12C renal
DLD-1 colon = system: DLD-1 colon
SK-OV-3 ovarian = system: SK-OV-3 ovarian
CAKI-1 renal = system: CAKI-1 renal
OVCAR-5 ovarian = system: OVCAR-5 ovarian
SF-268 CNS = system: SF-268 CNS
SK-MEL-2 melanoma = system: SK-MEL-2 melanoma
NCI-H522 lung = system: NCI-H522 lung
RPMI-8226 leukemia = system: RPMI-8226 leukemia
IGROV1 ovarian = system: IGROV1 ovarian
CCRF-CEM leukemia = system: CCRF-CEM leukemia
NCI-H23 lung = system: NCI-H23 lung
MOLT-4 leukemia = system: MOLT-4 leukemia
SK-MEL-5 melanoma = system: SK-MEL-5 melanoma
MALME-3M melanoma = system: MALME-3M melanoma
SNB-75 CNS = system: SNB-75 CNS
XF 498 CNS = system: XF 498 CNS
SK-MEL-28 melanoma = system: SK-MEL-28 melanoma
HT29 colon = system: HT29 colon
OVCAR-4 ovarian = system: OVCAR-4 ovarian
K-562 leukemia = system: K-562 leukemia
A498 renal = system: A498 renal
KM20L2 colon = system: KM20L2 colon
A549 NSCLC = system: A549 NSCLC
UACC-62 melanoma = system: UACC-62 melanoma
NCI-H460 lung = system: NCI-H460 lung
SNB-19 CNS = system: SNB-19 CNS
RXF 393 renal = system: RXF 393 renal
P388/ADR leukemia = system: P388/ADR leukemia
HOP-92 NSCLC = system: HOP-92 NSCLC
HCC-2998 colon = system: HCC-2998 colon
U251 CNS = system: U251 CNS
NCI/ADR-RES ovarian = system: NCI/ADR-RES ovarian
SW-620 colon = system: SW-620 colon
P388 leukemia = system: P388 leukemia
SN12K1 renal = system: SN12K1 renal
M14 melanoma = system: M14 melanoma
TK-10 renal = system: TK-10 renal
ACHN renal = system: ACHN renal
LXFL 529 NSCLC = system: LXFL 529 NSCLC
SR leukemia = system: SR leukemia
786-0 renal = system: 786-0 renal
RXF-631 renal = system: RXF-631 renal

`O=C1C(CO)=C[C@H](O)[C@H]2O[C@@H]12` was tested, and the TGI (LOX IMVI melanoma) was over 393 µM, the TGI (HOP-18 NSCLC) was over 625 µM and the TGI (OVCAR-3 ovarian) was 406 µM. The TGI (M19-MEL melanoma) was 292 µM, the TGI (DMS 273 small cell lung) was 485 µM and the TGI (EKVX NSCLC) was 215 µM. It also gave a TGI (HCT-15 colon) of 278 µM, a TGI (SF-295 CNS) of 177 µM and a TGI (UO-31 renal) of 507 µM. For the same molecule, the TGI (SF-539 CNS) was over 562 µM, the TGI (NCI-H226 lung) was 371 µM and the TGI (DMS 114 small cell lung) was 296 µM. The TGI (HCT-116 colon) was 225 µM, the TGI (OVCAR-8 ovarian) was 325 µM and the TGI (SNB-78 CNS) was 480 µM. For the same molecule, the TGI (KM12 colon) was 219 µM, the TGI (HL-60(TB) leukemia) was 253 µM and the TGI (MCF7 breast) was 271 µM. For the same molecule, the TGI (COLO 205 colon) was 209 µM, the TGI (HOP-62 NSCLC) was over 612 µM and the TGI (UACC-257 melanoma) was 387 µM. For the same molecule, the TGI (SN12C renal) was 265 µM, the TGI (DLD-1 colon) was 227 µM and the TGI (SK-OV-3 ovarian) was 561 µM. The TGI (CAKI-1 renal) was 514 µM, the TGI (OVCAR-5 ovarian) was 346 µM and the TGI (SF-268 CNS) was 298 µM. The TGI (SK-MEL-2 melanoma) was 345 µM, the TGI (NCI-H522 lung) was 164 µM and the TGI (RPMI-8226 leukemia) was 332 µM. The TGI (IGROV1 ovarian) was 473 µM, the TGI (CCRF-CEM leukemia) was 418 µM and the TGI (NCI-H23 lung) was 588 µM. For the same molecule, the TGI (MOLT-4 leukemia) was 355 µM, the TGI (SK-MEL-5 melanoma) was 389 µM and the TGI (MALME-3M melanoma) was 319 µM. It also gave a TGI (SNB-75 CNS) of 561 µM, a TGI (XF 498 CNS) of 359 µM and a TGI (SK-MEL-28 melanoma) of 294 µM. For the same molecule, the TGI (HT29 colon) was over 625 µM, the TGI (OVCAR-4 ovarian) was 317 µM and the TGI (K-562 leukemia) was 439 µM. The TGI (A498 renal) was 519 µM, the TGI (KM20L2 colon) was over 625 µM and the TGI (A549 NSCLC) was over 394 µM. The TGI (UACC-62 melanoma) was 215 µM, the TGI (NCI-H460 lung) was 420 µM and the TGI (SNB-19 CNS) was over 625 µM. For the same molecule, the TGI (RXF 393 renal) was 402 µM, the TGI (P388/ADR leukemia) was 225 µM and the TGI (HOP-92 NSCLC) was 525 µM. For the same molecule, the TGI (HCC-2998 colon) was over 508 µM, the TGI (U251 CNS) was 381 µM and the TGI (NCI/ADR-RES ovarian) was 449 µM. For the same molecule, the TGI (SW-620 colon) was 284 µM, the TGI (P388 leukemia) was 195 µM and the TGI (SN12K1 renal) was 278 µM.
`COC/N=C(\NC#N)NCOC` was tested, and the TGI (LOX IMVI melanoma) was over 95.8 µM, the TGI (M14 melanoma) was over 100 µM and the TGI (HOP-18 NSCLC) was over 100 µM. For the same molecule, the TGI (OVCAR-3 ovarian) was over 100 µM, the TGI (M19-MEL melanoma) was over 100 µM and the TGI (DMS 273 small cell lung) was over 81.5 µM. The TGI (TK-10 renal) was over 100 µM, the TGI (EKVX NSCLC) was over 100 µM and the TGI (ACHN renal) was over 100 µM. The TGI (HCT-15 colon) was over 59.4 µM, the TGI (SF-295 CNS) was over 100 µM and the TGI (UO-31 renal) was over 100 µM. It also gave a TGI (SF-539 CNS) of over 100 µM, a TGI (NCI-H226 lung) of over 100 µM and a TGI (DMS 114 small cell lung) of over 72.5 µM. The TGI (HCT-116 colon) was over 100 µM, the TGI (OVCAR-8 ovarian) was over 100 µM and the TGI (KM12 colon) was over 100 µM. It also gave a TGI (HL-60(TB) leukemia) of over 100 µM, a TGI (COLO 205 colon) of over 85.1 µM and a TGI (HOP-62 NSCLC) of over 100 µM. It also gave a TGI (UACC-257 melanoma) of over 100 µM, a TGI (SN12C renal) of over 100 µM and a TGI (DLD-1 colon) of over 100 µM. It also gave a TGI (SK-OV-3 ovarian) of over 100 µM, a TGI (CAKI-1 renal) of over 100 µM and a TGI (OVCAR-5 ovarian) of over 100 µM. The TGI (SF-268 CNS) was over 100 µM, the TGI (SK-MEL-2 melanoma) was over 100 µM and the TGI (NCI-H522 lung) was over 100 µM. It also gave a TGI (LXFL 529 NSCLC) of over 100 µM, a TGI (SR leukemia) of 54.6 µM and a TGI (RPMI-8226 leukemia) of over 70.8 µM. The TGI (IGROV1 ovarian) was over 100 µM, the TGI (786-0 renal) was over 74.6 µM and the TGI (CCRF-CEM leukemia) was over 100 µM. It also gave a TGI (NCI-H23 lung) of over 100 µM, a TGI (MOLT-4 leukemia) of over 100 µM and a TGI (SK-MEL-5 melanoma) of over 100 µM. It also gave a TGI (MALME-3M melanoma) of over 100 µM, a TGI (SNB-75 CNS) of over 100 µM and a TGI (XF 498 CNS) of over 100 µM. For the same molecule, the TGI (SK-MEL-28 melanoma) was over 100 µM, the TGI (HT29 colon) was over 100 µM and the TGI (OVCAR-4 ovarian) was over 100 µM. It also gave a TGI (K-562 leukemia) of over 100 µM, a TGI (A498 renal) of over 100 µM and a TGI (KM20L2 colon) of over 100 µM. It also gave a TGI (A549 NSCLC) of over 100 µM, a TGI (UACC-62 melanoma) of over 100 µM and a TGI (NCI-H460 lung) of over 100 µM. It also gave a TGI (RXF-631 renal) of over 100 µM, a TGI (SNB-19 CNS) of over 100 µM and a TGI (RXF 393 renal) of over 63.3 µM. For the same molecule, the TGI (HOP-92 NSCLC) was over 100 µM, the TGI (HCC-2998 colon) was over 100 µM and the TGI (U251 CNS) was over 100 µM. For the same molecule, the TGI (SW-620 colon) was over 59.7 µM.
